Source: patent US8957074B2 (Novartis AG, priority 2010, dated 2015)
Read-outs that look alike come from different tables or passages of the source.

How the values were obtained:
CDK1/cyclin B = CDK1/cyclin B (Homo sapiens (Human), UniProt P06493); experiment: CDK1/cyclin B enzymatic activity assay (IMAP-FP); assay type: biochemical; conditions: 100 nM Tamra Histone-H1 peptide, 20 μM ATP, 120 min at room temperature, read-out: Biochemical CDK1 enzyme IC50
Source text: CDK1/Cyclin B Enzymatic Activity Assay
A 384-well microtiter IMAP-FP™ (Molecular Devices Trade Mark Technology) endpoint assay was used for CDK1/cyclin B kinase activity measurements. The same assay was used for IC50 determination of small molecule inhibitors.

[1] = test system: phosphorylation of pRb at the Ser780 site in JeKo-1 mantle cell lymphoma cells; experiment: CDK4 cellular assay: ELISA of pRb phosphorylation at Ser780 in JeKo-1 cells; assay type: cell-based; conditions: Homo sapiens
CDK4/cyclin D1 = CDK4/cyclin D1 (Homo sapiens (Human), UniProt P11802); experiment: CDK4/cyclin D1 enzymatic activity assay (TR-FRET, phosphorylation of pRb at Ser780); assay type: biochemical; conditions: 0.3 nM CDK4/cyclin D1, 150 nM biotin-pRb (773-924), 3 μM ATP, 60 min at 22° C.; read-out: Biochemical CDK4 enzyme IC50
Outline: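 Phosphorylation at pRb Ser780, detected by TR-FRET, gave IC50s and kinetics. Enzyme: baculovirus/Sf21-expressed human CDK4/cyclin D1. ATP at 3 μM initiated the reaction; EDTA (pH 8.0) stopped it after 60 min at 22° C.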

[2] = JeKo-1 cells, p-pRb Ser780 ELISA, non-normalized, read-out: Cellular ppRb inhibition IC50
[3] = JeKo-1, JeKo-1 cells, p-pRb % inhibition adjusted with total pRb levels, read-out: Normalized cellular ppRb inhibition IC50
[4] = JeKo-1, JeKo-1 cells, p-pRb Ser780 ELISA, non-normalized, read-out: Cellular ppRb inhibition IC50
[5] = JeKo-1 cells, p-pRb % inhibition adjusted with total pRb levels, read-out: Normalized cellular ppRb inhibition IC50

CDK4/cyclin D1, sequence (P11802 whole entry): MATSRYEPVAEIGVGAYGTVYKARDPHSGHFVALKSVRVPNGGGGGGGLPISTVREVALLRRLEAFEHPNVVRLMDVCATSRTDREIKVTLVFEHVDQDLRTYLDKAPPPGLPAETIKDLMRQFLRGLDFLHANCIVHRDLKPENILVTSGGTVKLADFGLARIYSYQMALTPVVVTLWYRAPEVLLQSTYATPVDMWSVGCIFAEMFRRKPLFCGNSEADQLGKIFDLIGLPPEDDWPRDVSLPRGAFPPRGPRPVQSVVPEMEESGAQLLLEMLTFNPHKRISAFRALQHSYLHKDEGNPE
CDK4/cyclin D1, sequence (P24385 whole entry partner): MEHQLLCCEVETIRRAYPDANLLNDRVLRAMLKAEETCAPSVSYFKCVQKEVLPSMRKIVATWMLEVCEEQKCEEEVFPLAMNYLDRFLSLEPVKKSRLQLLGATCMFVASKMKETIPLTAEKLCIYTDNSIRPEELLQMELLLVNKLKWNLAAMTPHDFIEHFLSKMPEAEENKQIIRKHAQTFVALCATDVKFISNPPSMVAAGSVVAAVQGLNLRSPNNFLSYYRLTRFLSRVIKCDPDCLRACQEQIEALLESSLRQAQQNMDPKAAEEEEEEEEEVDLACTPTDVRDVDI
CDK1/cyclin B, sequence (P06493 whole entry, species assumed): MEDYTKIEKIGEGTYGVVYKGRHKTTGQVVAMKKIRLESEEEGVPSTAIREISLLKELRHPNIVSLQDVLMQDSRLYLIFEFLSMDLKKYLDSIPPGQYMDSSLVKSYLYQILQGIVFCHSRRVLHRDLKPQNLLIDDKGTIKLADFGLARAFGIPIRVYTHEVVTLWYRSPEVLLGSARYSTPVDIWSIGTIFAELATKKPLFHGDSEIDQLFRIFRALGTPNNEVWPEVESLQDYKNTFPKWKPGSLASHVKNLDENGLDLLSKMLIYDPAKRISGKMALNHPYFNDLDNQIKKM
CDK1/cyclin B, sequence (P14635 whole entry partner, species assumed): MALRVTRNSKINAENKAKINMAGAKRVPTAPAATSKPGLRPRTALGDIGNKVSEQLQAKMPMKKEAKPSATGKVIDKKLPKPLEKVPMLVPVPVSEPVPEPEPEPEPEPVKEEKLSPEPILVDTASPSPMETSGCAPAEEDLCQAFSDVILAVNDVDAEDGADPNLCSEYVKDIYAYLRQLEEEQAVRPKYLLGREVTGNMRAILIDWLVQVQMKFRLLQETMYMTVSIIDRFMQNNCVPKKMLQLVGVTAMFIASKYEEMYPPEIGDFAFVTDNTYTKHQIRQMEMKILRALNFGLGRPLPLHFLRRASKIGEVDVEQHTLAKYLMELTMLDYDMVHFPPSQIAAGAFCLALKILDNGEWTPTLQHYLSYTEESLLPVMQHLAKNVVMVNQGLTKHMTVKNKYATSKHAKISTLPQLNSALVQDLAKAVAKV

| SMILES | IC50 (CDK1/cyclin B; […] CDK1/cyclin B) [nM] | IC50 [1, 2] [nM] | IC50 (CDK4/cyclin D1) [nM] | IC50 [1, 3] [nM] | IC50 [1, 4] [nM] | IC50 [1, 5] [nM] | IC50 (CDK1/cyclin B; 0.25 nM CDK1/cyclin B) [nM] |
| --- | --- | --- | --- | --- | --- | --- | --- |
| CC(=O)NCC(=O)N1[C@@H]2CC[C@H]1CN(c1ccc(Nc3ncc4cc(C(=O)N(C)C)n(C5CCCC5)c4n3)nc1)C(=O)C2 [Example 138, 2-(5-((1S,6R)-9-(2-acetamidoacetyl)-4-oxo-3,9-diazabicyclo[4.2.1]nonan-3-yl)pyridin-2-ylamino)-7-cyclopentyl-N,N-dimethyl-7H-pyrrolo[2,3-d]pyrimidine-6-carboxamide] | > 15000 | 1600 | 106 |  |  |  |  |
| CC(=O)N1[C@@H]2CC[C@H]1CN(c1ccc(Nc3ncc4cc(C(=O)N(C)C)n(C5CCCC5)c4n3)nc1)C(=O)C2 [Example 139, 2-(5-((1S,6R)-9-acetyl-4-oxo-3,9-diazabicyclo[4.2.1]nonan-3-yl)pyridin-2-ylamino)-7-cyclopentyl-N,N-dimethyl-7H-pyrrolo[2,3-d]pyrimidine-6-carboxamide] | > 15000 |  | 114 | 638 | 605 |  |  |
| CN(C)C(=O)c1cc2cnc(Nc3ccc(N4C[C@H]5CC[C@@H](CC4=O)N5C)cn3)nc2n1C1CCCC1 [Example 140, 7-cyclopentyl-N,N-dimethyl-2-(5-((1R,6S)-9-methyl-4-oxo-3,9-diazabicyclo[4.2.1]nonan-3-yl)pyridin-2-ylamino)-7H-pyrrolo[2,3-d]pyrimidine-6-carboxamide] | > 15000 |  | 5 to 6 | 11 to 18 | 5 to 9 |  |  |
| CN(C)C(=O)c1cc2cnc(Nc3ccc(N4C[C@@H]5CC[C@H](CC4=O)N5C)cn3)nc2n1C1CCCC1 [Example 141, 7-Cyclopentyl-2-[5-((1S,6R)-9-methyl-4-oxo-3,9-diaza-bicyclo[4.2.1]non-3-yl)-pyridin-2-ylamino]-7H-pyrrolo[2,3-d]pyrimidine-6-carboxylic acid dimethylamide] | > 15000 |  | 45 | 34 | 24 |  |  |
| CC(C)N1[C@@H]2CC[C@H]1CN(c1ccc(Nc3ncc4cc(C(=O)N(C)C)n(C5CCCC5)c4n3)nc1)C(=O)C2 [Example 142, 7-Cyclopentyl-2-[5-((1S,6R)-9-isopropyl-4-oxo-3,9-diaza-bicyclo[4.2.1]non-3-yl)-pyridin-2-ylamino]-7H-pyrrolo[2,3-d]pyrimidine-6-carboxylic acid dimethylamide] | > 15000 | 6 | 34 |  |  | 13 |  |
| [2H]C([2H])([2H])N1[C@@H]2CC[C@H]1CN(c1ccc(Nc3ncc4cc(C(=O)N(C)C)n(C5CCCC5)c4n3)nc1)C(=O)C2 [Example 143, 7-Cyclopentyl-2-[5-((1S,6R)-9-trideuteromethyl-4-oxo-3,9-diazabicyclo[4.2.1]non-3-yl)-pyridin-2-ylamino]-7H-pyrrolo[2,3-d]pyrimidine-6-carboxylic acid dimethylamide] |  |  | 44 | 251 | 119 |  | > 15000 |
| CN(C)C(=O)c1cc2cnc(Nc3ccc(N4C[C@H]5CC[C@@H](CC4=O)N5CC(F)(F)F)cn3)nc2n1C1CCCC1 [Example 144, 7-cyclopentyl-N, N-dimethyl-2-(5-((1R,6S)-4-oxo-9-(2,2,2-trifluoroethyl)-3,9-diazabicyclo[4.2.1]nonan-3-yl)pyridin-2-ylamino)-7H-pyrrolo[2,3-d]pyrimidine-6-carboxamide] | > 15000 | 31 | 19 |  |  | 49 |  |
| CN(C)C(=O)c1cc2cnc(Nc3ccc(N4CC5COCC(CC4=O)N5)cn3)nc2n1C1CCCC1 (stereo not drawn) [Example 145, 7-Cyclopentyl-2-[5-(4-oxo-8-oxa-3,10-diaza-bicyclo[4.3.1]dec-3-yl)-pyridin-2-ylamino]-7H-pyrrolo[2,3-d]pyrimidine-6-carboxylic acid dimethylamide] | > 15000 | 45 | 32 |  |  | 162 |  |
| CN(C)C(=O)c1cc2cnc(Nc3ccc(N4CCN5CCC[C@H]5C4=O)cn3)nc2n1C1CCCC1 [Example 146] | > 15000 |  | 619 | 2900 | 2700 |  |  |
| CN(C)C(=O)c1cc2cnc(Nc3ccc(N4CCN5CCC[C@@H]5C4=O)cn3)nc2n1C1CCCC1 [Example 147] | > 15000 |  | 27 | 310 | 257 |  |  |
